Measured values as given in patent publication US20020137929A1, “1 - (3-heterocyclylphenyl) isothiourea, -isourea, -guanidine and -amidine herbicidal agents” (Intellectual Property Department, BASF Aktiengesellschaft, priority 1998, published 2002).

How the values were obtained:
ECHCG (Barnyardgrass) = test: Preemergence herbicidal evaluation; type: in vivo, Echinochloa crus-galli; details: rated 4-5 weeks after treatment
Description: (§1) Results of herbicide evaluation are expressed on a rating scale (0-9). The scale is based upon a visual observation of plant stand, vigor, malformation, size, chlorosis and overall plant appearance as compared with a control.
(§2) The preemergence herbicidal activity of the test compounds of the present invention is exemplified by the following tests in which the seeds of a variety of monocotyledonous and dicotyledonous plants are separately mixed with potting soil and planted on top of approximately one inch of soil in separate pint cups. After planting, the cups are sprayed with the selected aqueous acetone solution containing test compound in sufficient quantity to provide the equivalent of about 0.0156 to 0.500 kg per hectare of test compound per cup. The treated cups are then placed on greenhouse benches, watered and cared for in accordance with conventional greenhouse procedures. From four to five weeks after treatment, the tests are terminated and each cup is examined and rated according to the rating system provided in Example 37.
(§3) The compounds evaluated are reported by compound number given in Example 37.

SETVI (Foxtail, Green) [1] = test: Postemergence herbicidal evaluation; type: in vivo, Setaria viridis; details: postemergence
Protocol: (§4) In the tests, seedling plants are grown in jiffy flats for about two weeks. The test compounds are dispersed in 50/50 acetone/water mixtures containing 0.5% TWEEN®20, a polyoxyethylene sorbitan monolaurate surfactant of Atlas Chemical Industries, in sufficient quantities to provide the equivalent of about 0.0156 kg to 0.500 kg per hectare of active compound when applied to the plants through a spray nozzle operating at 40 psi for a predetermined time. After spraying, the plants are placed on greenhouse benches and are cared for in accordance with conventional greenhouse procedures. From four to five weeks after treatment, the seedling plants are examined and rated according to the rating system set forth below. Where more than one test is involved for a given compound, the data are averaged.
(§5) Plant species employed in these evaluations are reported by header abbreviation, common name and scientific name.
as §1

ZEAMX (Corn, Field) [2] = test: Postemergence herbicidal evaluation; type: in vivo, Zea mays; details: postemergence
Method in brief: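 First, seedlings were raised for around two weeks. Next, test material in 50/50 acetone/water containing 0.5% TWEEN 20 was sprayed through a nozzle at 40 psi, equivalent to about 0.0156–0.500 kg/ha. Finally, after 4–5 weeks in the greenhouse, plants were rated 0–9.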

CYPSE (Flatsedge) = test: Preemergence weed control under flooded paddy conditions; type: in vivo, Cyperus serotinus; details: rated 3-4 weeks after treatment
Method in brief: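 Using flooded silt loam (water 1.5 to 3 cm deep), seeds sown in the top 0.5 cm were exposed preemergence to compound pipetted into the flood at about 0.0313 to 0.500 kg/ha. Effects were scored 0-9 by eye three to four weeks later.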

ORYSAT (Rice, Tebonnet) = test: Postemergence herbicidal evaluation; type: in vivo, Oryza sativa, (L.) Tebonnet; details: postemergence
Protocol: as §4, §5, §1

[3] = test system: TRZAWR (Wheat, Winter, cv Riband); test: Preemergence herbicidal evaluation; type: in vivo, Triticum aestivum; details: rated 4-5 weeks after treatment
Description: as §1, §2, §3

SETVI (Foxtail, Green) [4] = test: Preemergence herbicidal evaluation; type: in vivo, Setaria viridis; details: rated 4-5 weeks after treatment
Description: as §1, §2, §3

[5] = test system: ECHORC (Watergrass (Calif.)); test: Preemergence weed control under flooded paddy conditions; type: in vivo, Echinochloa oryzoides; details: rated 3-4 weeks after treatment
Method in brief: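 Visual injury scored 0-9 against control three to four weeks post-treatment, greenhouse-grown. Application: acetone/water (50/50) solutions dosed directly into flood water (1.5-3 cm over silt loam, planted top 0.5 cm), roughly 0.0313 to 0.500 kg/ha active ingredient.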

ZEAMX (Corn, Field) [6] = test: Preemergence herbicidal evaluation; type: in vivo, Zea mays; details: rated 4-5 weeks after treatment
Description: as §1, §2, §3

CYPIR (Rice Flatsedge) = test: Preemergence weed control under flooded paddy conditions; type: in vivo, Cyperus iria; details: rated 3-4 weeks after treatment
Protocol: as §1
Preemergence herbicidal activity under flooded paddy conditions is determined as follows: plant seeds or propagating organs are planted in the top 0.5 cm of silt loam soil in 32 oz. plastic containers with a diameter of 10.5 cm and no drainage holes. Water is added to these containers and maintained at 1.5 to 3 cm above the soil surface for the duration of the experiment. The test compounds are applied as aqueous/acetone mixtures 50/50 v/v pipetted directly into the flood water to give the equivalent of about 0.0313 to 0.500 kg/ha of active ingredient. The treated containers are placed on greenhouse benches and cared for in accordance with conventional greenhouse procedures. Three to four weeks after treatment, the test is terminated and each container is examined and herbicidal effect rated according to the rating system provided in Example 37. The compounds evaluated are reported by compound number given in Example 37.
Plant species employed in this example are reported by header abbreviation, common name and scientific name.

CC(C)OC(=O)CN1C(=O)CSC1=Nc1cc(-n2c(=O)cc(C(F)(F)F)n(C)c2=O)c(F)cc1Cl [Compound 110]
8.0: Preemergence herbicidal rating SETVI (SETVI (Foxtail, Green) [4]; rate 0.1250 kg/ha) | CYPIR herbicidal effect rating (CYPIR (Rice Flatsedge); 0.2500 kg/ha)
4.0: Preemergence herbicidal rating ECHCG (ECHCG (Barnyardgrass); rate 0.5000 kg/ha) | Preemergence herbicidal rating ZEAMX (ZEAMX (Corn, Field) [6]; rate 0.5000 kg/ha) | CYPIR herbicidal effect rating (CYPIR (Rice Flatsedge); 0.0625 kg/ha)
2.0: Preemergence herbicidal rating ECHCG (ECHCG (Barnyardgrass); rate 0.1250 kg/ha)
5.0: Herbicidal rating ZEAMX (ZEAMX (Corn, Field) [2]; rate 0.0158 kg/ha) | Preemergence herbicidal rating SETVI (SETVI (Foxtail, Green) [4]; rate 0.0625 kg/ha)
1.5: Preemergence herbicidal rating SETVI (SETVI (Foxtail, Green) [4]; rate 0.0156 kg/ha)
2.5: Herbicidal rating ORYSAT (ORYSAT (Rice, Tebonnet); rate 0.0158 kg/ha) | Preemergence herbicidal rating SETVI (SETVI (Foxtail, Green) [4]; rate 0.0313 kg/ha) | Preemergence herbicidal rating ZEAMX (ZEAMX (Corn, Field) [6]; rate 0.1250 kg/ha)
7.0: Herbicidal rating ZEAMX (ZEAMX (Corn, Field) [2]; rate 0.0630 kg/ha) | ECHORC herbicidal effect rating ([5]; 0.0313 kg/ha) | ECHORC herbicidal effect rating ([5]; 0.0625 kg/ha) | ECHORC herbicidal effect rating ([5]; 0.1250 kg/ha) | CYPIR herbicidal effect rating (CYPIR (Rice Flatsedge); 0.1250 kg/ha)
0.0: Preemergence herbicidal rating ECHCG (ECHCG (Barnyardgrass); rate 0.0156 kg/ha) | Preemergence herbicidal rating ECHCG (ECHCG (Barnyardgrass); rate 0.0313 kg/ha) | CYPSE herbicidal effect rating (CYPSE (Flatsedge); 0.0313 kg/ha) | CYPSE herbicidal effect rating (CYPSE (Flatsedge); 0.0625 kg/ha) | CYPSE herbicidal effect rating (CYPSE (Flatsedge); 0.1250 kg/ha) | CYPSE herbicidal effect rating (CYPSE (Flatsedge); 0.2500 kg/ha) | Preemergence herbicidal rating TRZAWR ([3]; rate 0.0156 kg/ha) | Preemergence herbicidal rating ZEAMX (ZEAMX (Corn, Field) [6]; rate 0.0156 kg/ha)
0.5: Preemergence herbicidal rating ECHCG (ECHCG (Barnyardgrass); rate 0.0625 kg/ha) | Preemergence herbicidal rating ZEAMX (ZEAMX (Corn, Field) [6]; rate 0.0313 kg/ha)
3.0: Preemergence herbicidal rating ECHCG (ECHCG (Barnyardgrass); rate 0.2500 kg/ha) | CYPIR herbicidal effect rating (CYPIR (Rice Flatsedge); 0.0313 kg/ha)
6.5: Herbicidal rating ZEAMX (ZEAMX (Corn, Field) [2]; rate 0.0315 kg/ha)
9.0: Herbicidal rating SETVI (SETVI (Foxtail, Green) [1]; rate 0.0315 kg/ha) | Herbicidal rating SETVI (SETVI (Foxtail, Green) [1]; rate 0.0630 kg/ha) | Preemergence herbicidal rating SETVI (SETVI (Foxtail, Green) [4]; rate 0.2500 kg/ha) | Preemergence herbicidal rating SETVI (SETVI (Foxtail, Green) [4]; rate 0.5000 kg/ha) | ECHORC herbicidal effect rating ([5]; 0.2500 kg/ha)
3.5: Herbicidal rating ORYSAT (ORYSAT (Rice, Tebonnet); rate 0.0315 kg/ha) | Herbicidal rating ORYSAT (ORYSAT (Rice, Tebonnet); rate 0.0630 kg/ha) | Preemergence herbicidal rating ZEAMX (ZEAMX (Corn, Field) [6]; rate 0.2500 kg/ha)
1.0: Herbicidal rating SETVI (SETVI (Foxtail, Green) [1]; rate 0.0158 kg/ha) | Preemergence herbicidal rating TRZAWR ([3]; rate 0.0313 kg/ha) | Preemergence herbicidal rating TRZAWR ([3]; rate 0.0625 kg/ha) | Preemergence herbicidal rating TRZAWR ([3]; rate 0.1250 kg/ha) | Preemergence herbicidal rating TRZAWR ([3]; rate 0.2500 kg/ha) | Preemergence herbicidal rating ZEAMX (ZEAMX (Corn, Field) [6]; rate 0.0625 kg/ha)

CCOC(=O)CN1C(=O)C(CC(=O)O)SC1=Nc1cc(N2C(=O)CC(C(F)(F)F)CC2=O)c(F)cc1Cl (stereo not drawn) [Compound 170, 2-{{2-Chloro-5-[2,6-dioxo-4-(trifluoromethyl)-piperidino]-4-fluorophenyl}imino}-4-oxo-3,5-thiazolidinediacetic acid, 3-ethyl ester]
3.0: Preemergence herbicidal rating ECHCG (ECHCG (Barnyardgrass); 0.0156 kg/ha)
2.0: Herbicidal rating ORYSAT (ORYSAT (Rice, Tebonnet); rate 0.0156 kg/ha) | Herbicidal rating ORYSAT (ORYSAT (Rice, Tebonnet); rate 0.0313 kg/ha)
6.0: Herbicidal rating SETVI (SETVI (Foxtail, Green) [1]; rate 0.0156 kg/ha) | Herbicidal rating ZEAMX (ZEAMX (Corn, Field) [2]; rate 0.0313 kg/ha) | Herbicidal rating ZEAMX (ZEAMX (Corn, Field) [2]; rate 0.0625 kg/ha) | Preemergence herbicidal rating TRZAWR ([3]; 0.0313 kg/ha)
8.0: Preemergence herbicidal rating TRZAWR ([3]; 0.1250 kg/ha) | Preemergence herbicidal rating ZEAMX (ZEAMX (Corn, Field) [6]; 0.0625 kg/ha)
5.0: Herbicidal rating ZEAMX (ZEAMX (Corn, Field) [2]; rate 0.0156 kg/ha) | Preemergence herbicidal rating ZEAMX (ZEAMX (Corn, Field) [6]; 0.0156 kg/ha)
7.0: Preemergence herbicidal rating TRZAWR ([3]; 0.0625 kg/ha) | Preemergence herbicidal rating ZEAMX (ZEAMX (Corn, Field) [6]; 0.0313 kg/ha)
9.0: Preemergence herbicidal rating ECHCG (ECHCG (Barnyardgrass); 0.0313 kg/ha) | Preemergence herbicidal rating ECHCG (ECHCG (Barnyardgrass); 0.0625 kg/ha) | Preemergence herbicidal rating ECHCG (ECHCG (Barnyardgrass); 0.1250 kg/ha) | Preemergence herbicidal rating ECHCG (ECHCG (Barnyardgrass); 0.2500 kg/ha) | Herbicidal rating SETVI (SETVI (Foxtail, Green) [1]; rate 0.0313 kg/ha) | Herbicidal rating SETVI (SETVI (Foxtail, Green) [1]; rate 0.0625 kg/ha) | Preemergence herbicidal rating TRZAWR ([3]; 0.2500 kg/ha) | Preemergence herbicidal rating SETVI (SETVI (Foxtail, Green) [4]; 0.0156 kg/ha) | Preemergence herbicidal rating SETVI (SETVI (Foxtail, Green) [4]; 0.0313 kg/ha) | Preemergence herbicidal rating SETVI (SETVI (Foxtail, Green) [4]; 0.0625 kg/ha) | Preemergence herbicidal rating SETVI (SETVI (Foxtail, Green) [4]; 0.1250 kg/ha) | Preemergence herbicidal rating SETVI (SETVI (Foxtail, Green) [4]; 0.2500 kg/ha) | herbicidal effect rating, ECHORC ([5]; 0.0313 kg/ha) | herbicidal effect rating, ECHORC ([5]; 0.0625 kg/ha) | herbicidal effect rating, ECHORC ([5]; 0.1250 kg/ha) | herbicidal effect rating, ECHORC ([5]; 0.2500 kg/ha) | Preemergence herbicidal rating ZEAMX (ZEAMX (Corn, Field) [6]; 0.1250 kg/ha) | Preemergence herbicidal rating ZEAMX (ZEAMX (Corn, Field) [6]; 0.2500 kg/ha) | herbicidal effect rating, CYPIR (CYPIR (Rice Flatsedge); 0.0313 kg/ha) | herbicidal effect rating, CYPIR (CYPIR (Rice Flatsedge); 0.0625 kg/ha) | herbicidal effect rating, CYPIR (CYPIR (Rice Flatsedge); 0.1250 kg/ha) | herbicidal effect rating, CYPIR (CYPIR (Rice Flatsedge); 0.2500 kg/ha)
0.0: Preemergence herbicidal rating TRZAWR ([3]; 0.0156 kg/ha)
2.5: Herbicidal rating ORYSAT (ORYSAT (Rice, Tebonnet); rate 0.0625 kg/ha)
